The text below walks through data of patent EP0627929B1, “INHIBITORS OF THROMBOSIS” (CORVAS INTERNATIONAL, INC., priority 1992, dated 1993).

Like-named read-outs stand apart in the source and are kept apart here. Peptide text beside a SMILES is read from it. * marks the point of attachment. Hydrocinnamoyl = O=C(CCc1ccccc1)*

For orientation: IC50 means the concentration that inhibits the measured activity by half. High values mean weaker potency in that assay, low ones greater potency in that assay.

Assay [1] has as its target human α-thrombin (Homo sapiens, UniProt P00734). Description: Thrombin assay: inhibition of chromogenic substrate (Pefachrome t-PA) hydrolysis. The class given is biochemical. The settings on record: purified human α-thrombin 0.25 nM, substrate 300 µM, 30 minute incubation, HBSA pH 7.5. As for the experimental part: (§1) In the assays for thrombin, factor Xa and plasmin, a chromogenic synthetic substrate is added to a solution containing test compound and the enzyme of interest and the residual catalytic activity of that enzyme is determined spectrophometrically. The IC50 of compound is determined from the substrate turnover. […] The buffer used for all assays was HBSA (10 mM HEPES, pH 7.5, 150 mM sodium chloride, 0.1% bovine serum albumin). […] Following a 30 minute incubation at ambient temperature, 50 µL of the substrate at the concentrations specified below, was added to the wells yielding a final total volume of 200 µL.

The target in assay [2] is T1, Human factor Xa (Homo sapiens, UniProt P00742).
T1 construct: Human factor Xa was prepared from purified human factor X obtained from Enzyme Research Laboratories; purchased Enzyme Research Laboratories
T1 sequence (P00742 235-488 limits assumed): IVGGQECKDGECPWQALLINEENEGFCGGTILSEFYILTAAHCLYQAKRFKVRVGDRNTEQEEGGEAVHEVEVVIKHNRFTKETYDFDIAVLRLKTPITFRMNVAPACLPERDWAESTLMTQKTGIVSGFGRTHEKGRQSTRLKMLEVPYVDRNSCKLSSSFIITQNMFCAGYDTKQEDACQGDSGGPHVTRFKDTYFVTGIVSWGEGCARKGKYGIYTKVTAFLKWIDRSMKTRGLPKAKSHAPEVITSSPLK
T1 sequence (P00742 41-179 partner limits assumed): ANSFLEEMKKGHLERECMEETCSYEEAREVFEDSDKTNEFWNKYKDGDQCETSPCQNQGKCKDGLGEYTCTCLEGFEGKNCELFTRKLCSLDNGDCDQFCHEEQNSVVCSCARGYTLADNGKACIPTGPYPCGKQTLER
The experiment in a line: Factor Xa assay: inhibition of chromogenic substrate (S2765) hydrolysis. The class given is biochemical. The settings on record: human factor Xa 0.5 nM, substrate 250 µM, 30 minute incubation, HBSA pH 7.5. As for the experimental part: as §1, with “μL” for “µL”, “μL. […] Factor Xa catalytic activity was determined using the substrate, S2765 (N-α-benzyloxycarbonyl-[…]-nitroanilide dihydrochloride) which was obtained from Kabi Diagnostica. […] Human factor Xa was prepared from purified human factor X obtained from Enzyme Research Laboratories according to the method described by Bock, P.E. et al., Archives of Biochem. Biophys. […] The enzyme was diluted into HBSA prior to the assay in which the final concentration was 0.5 nM.” for “µL.”

For assay [3], the target named is human plasmin (Homo sapiens, UniProt P00747). Description: Plasmin assay: inhibition of chromogenic substrate (S-2251) hydrolysis. The class given is biochemical. The note with it: purified human plasmin 1.0 nM, substrate 300 µM, 30 minute incubation, HBSA pH 7.5. On the procedure: as §1, with “μL” for “µL”, “μL. […] Plasmin catalytic activity was determined using the chromogenic substrate, […] dihydrochloride], which was obtained from Kabi Diagnostica.” for “µL.”
human plasmin, sequence (P00747 581-810 limits assumed): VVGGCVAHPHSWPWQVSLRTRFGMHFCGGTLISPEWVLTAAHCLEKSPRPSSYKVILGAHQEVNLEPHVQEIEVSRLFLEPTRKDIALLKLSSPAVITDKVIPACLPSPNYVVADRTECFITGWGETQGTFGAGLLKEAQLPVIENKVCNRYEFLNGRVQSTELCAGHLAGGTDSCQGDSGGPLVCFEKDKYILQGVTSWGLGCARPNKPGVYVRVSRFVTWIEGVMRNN
human plasmin, sequence (P00747 97-580 partner limits assumed): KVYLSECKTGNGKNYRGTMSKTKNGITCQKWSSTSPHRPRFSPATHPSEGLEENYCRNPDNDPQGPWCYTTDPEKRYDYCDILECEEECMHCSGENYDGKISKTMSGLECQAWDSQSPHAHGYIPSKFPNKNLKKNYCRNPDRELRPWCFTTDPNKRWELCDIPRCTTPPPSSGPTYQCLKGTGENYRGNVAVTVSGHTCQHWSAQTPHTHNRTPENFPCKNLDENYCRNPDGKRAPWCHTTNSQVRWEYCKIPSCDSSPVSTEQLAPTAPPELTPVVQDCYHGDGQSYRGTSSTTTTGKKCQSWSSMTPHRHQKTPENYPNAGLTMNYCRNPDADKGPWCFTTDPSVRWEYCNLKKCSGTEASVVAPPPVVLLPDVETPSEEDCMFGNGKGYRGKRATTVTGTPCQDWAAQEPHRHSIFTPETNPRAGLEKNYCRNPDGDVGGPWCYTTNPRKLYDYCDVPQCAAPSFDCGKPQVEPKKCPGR

In assay [4] the test system is FeCl3-induced platelet-dependent arterial thrombosis. The note with it: rat, [Isolated clot/(Intact segment-Empty segment)] X 100, mean ± S.E.M., control 68.65±3.75.
Experimental: In this model a platelet-rich, occlusive thrombus is formed in a segment of the rat carotid artery treated with a fresh solution of FeCl3 absorbed to a piece of filter paper. […] The effect of a test compound on the incidence of occlusive thrombus formation following the application of the FeCl3 is monitored by ultrasonic flowtometry and is used as the primary end point.
Male Harlan Sprague Dawley rats (420-450 g) were acclimated at least 72 hours prior to use and fasted for 12 hours prior to surgery with free access to water. The animals were prepared, anesthetized with Nembutal with catheters for blood pressure monitoring, drug and anesthesia delivery being implanted as described above. The left carotid artery was isolated by making a midline cervical incision followed by blunt dissection and spreading techniques to separate a 2 cm segment of the vessel from the carotid sheath. A silk suture is inserted under the proximal and distal ends of the isolated vessel to provide clearance for the placement of a ultrasonic flow probe (Transonic) around the proximal end of the vessel. The probe is then secured with a stationary arm.
The test compounds were administered as described above after placement of the flow probe and stabilization of the preparation for a period of 30 min prior to the thrombogenic stimulus. At t=0, a 3mm diameter piece of filter paper (Whatman #3) soaked with 10 mL of a 35% solution of fresh FeCl3 (made up in water) was applied the segment of isolated carotid artery distal to the flow probe. Blood pressure, blood flow, heart rate, and respiration were monitored for 60 minutes.
The incidence of occlusion (defined as the attainment of zero blood flow) was recorded as the primary end point. Following the 60 minute observation period the flow probe was removed and the area cleared of all excess fluid. The distal and proximal sutures were tied off and arterial clamps placed on the far proximal and distal ends of the segment. […] The segment was reweighed following removal of the clot and the difference recorded as total % clot weight. […]

For “3-tetrazolyl-2-(4-methylvaleroylamido) propionoyl-L-prolyl-L-argininal [4MeV-Ala(Tzl)-Pro-Arg-al]”, the concentration for half-maximal inhibition (IC50) in assay [1] came out at 88 nM; in assay [2], 64.5 nM; in assay [3], 500 nM.
In the case of `CCCC(CCC)C(=O)N[C@@H](CC(=O)OC)C(=O)N1CCC[C@H]1C(=O)N[C@H](C=O)CCCNC(=N)N` [2PrPent-Asp(OCH3)-Pro-Arg-al], the 50% inhibitory concentration (IC50) was determined as 293 nM in assay [2] and 326 nM in assay [3].
As for `CC(C)CCC(=O)N[C@@H](CC(=O)O)C(=O)N1CCC[C@H]1C(=O)N[C@H](C=O)CCCNC(=N)N` [4MeV-Asp-Pro-Arg-al, N-(4-methylpentanoyl)-L-aspartyl-L-prolyl-L-argininal], the IC50 in assay [1] amounted to 147 nM; in assay [2], 57 nM; in assay [3] it was 843 nM.
The like results for `N=C(N)NCCC[C@@H](C=O)NC(=O)[C@@H]1CCCN1C(=O)[C@H](CC(=O)O)NC(=O)CC1CCCCC1` [ChxAc-Asp-Pro-Arg-al, N-(1-cyclohexylacetyl)-L-aspartyl-L-prolyl-L-argininal] were, in that order, 53.9 nM, 130 nM and 140 nM.
The like results for `COC(=O)C[C@H](NC(=O)CCc1ccccc1)C(=O)N1CCC[C@H]1C(=O)N[C@H](C=O)CCCNC(=N)N` [HCA-Asp(OCH3)-Pro-Arg-al, N-(3-phenylpropanoyl)-L-aspartyl-β-(methyl ester)-L-prolyl-L-argininal] (Hydrocinnamoyl-Asp(OMe)-Pro-Arg-aldehyde) were, in that order, 43.7 nM, 213 nM and 546 nM.
With “N-Boc-D-phenylalanyl-L-aspartyl-L-prolyl-L-argininal [Boc-(D-Phe)-Pro-Arg-al, reference compound]”, the IC50 in assay [1] came out at 4.6 nM; in assay [3] it was 1000 nM.
With `N=C(N)NCCC[C@@H](C=O)NC(=O)[C@@H]1CCCN1C(=O)[C@H](CC(=O)O)NC(=O)CCC1CCCCC1` [ChxPA-Asp-Pro-Arg-al, N-(3-cyclohexanepropionyl)-L-aspartyl-L-prolyl-L-argininal], the values for the half-inhibitory concentration (IC50) in assay [1], in assay [2] and in assay [3] were 52.9 nM, 31 nM and 830 nM, respectively.
In the case of “N-(3-phenylpropanyl)-L-aspartyl-L-prolyl-L-argininal [HCA-Asp-Pro-Arg-al]”, the results for the IC50 in assay [1], in assay [2] and in assay [3] were 234 nM, 91.5 nM and 326 nM, respectively. In addition, the “Clot Size” value in assay [4] (Group1: 25µg/kg/min i.v. infusion) is reported as 48.38±24.71%; in assay [4] (Group2: 50µg/kg/min i.v. infusion, p<0.01 vs Control) it was 22.38±21.0 %; in assay [4] (Group3: 100µg/kg/min i.v. infusion, p<0.01 vs Control) it was 3.38±5.44 %.
As for `CCCC(CCC)C(=O)N[C@@H](CC(=O)O)C(=O)N1CCC[C@H]1C(=O)N[C@H](C=O)CCCNC(=N)N` [2PrPent-Asp-Pro-Arg-al, N-(2-propylpentanoyl)-L-aspartyl-L-prolyl-L-argininal], the IC50 in assay [1] was found to be 8.5 nM; in assay [2], 173 nM; in assay [3], 283 nM.
